This note sets out measurements from patent publication US7491794B2, “Macrocyclic compounds as inhibitors of viral replication” (Intermune, Inc., priority 2003, dated 2009).

For assay [1], the system named is HCV sub-genomic replicon, GS4.3. The assay is described as follows: Quantitation by ELISA of NPTII in the HCV sub-genomic replicon, GS4.3, Section B. It counts as cell-based. To be noted: Hepatitis C virus; GS4.3 cells, 72 h incubation; read-out: Replicon EC50. The gist of the method: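 NPTII marker protein in lysates was quantified by ELISA read at 450 nm after 72 h inhibitor exposure (3-fold series, final DMSO 1%, G418-free medium) of HuH-7 cells stably harbouring the subgenomic HCV replicon. Values relative to DMSO-treated controls; 4-parameter curves gave EC50.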
Background: ELISA stands for enzyme-linked immunosorbent assay.

The target in the next assay is T1, NS3-NS4A protease (Hepatitis C virus genotype 1a, UniProt P27958).
T1 construct: Recombinant E. coli or Baculovirus full-length NS3 was diluted to 3.33 μM with assay buffer; made in house; host or cells: E. coli or baculovirus (BV) system
As to the kind of experiment: NS3-NS4A protease assay (NS3 inhibition assay, RETS1 substrate), Section B. It counts as biochemical. The conditions noted are these: read-out: NS3-NS4A IC50. The gist of the method: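 Kinetic fluorescence read (335 nm excitation, 495 nm emission, 30 min) of RETS1 cleavage by NS3/NS4A-2 complex, 2 nM E. coli or 3 nM baculovirus NS3, after 10 min room-temperature compound pre-incubation. Four-parameter-fit IC50s converted to Ki by Cheng–Prusoff, Ki=IC50/(1+[S]/Km).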

For another assay, the target named is T2, NS3-NS4 protease (Hepatitis C virus genotype 1a, UniProt P27958).
T2 construct: Recombinant E. coli or Baculovirus full-length NS3 was diluted to 3.33 μM with assay buffer; made in house; host or cells: E. coli or baculovirus (BV) system
The assay is described as follows: NS3-NS4 protease assay / NS3 inhibition assay, Section D. The class given is biochemical. The method, then: NS3-NS4 Protease Assay NS3 complex formation with NS4A-2.
Recombinant E. coli or Baculovirus full-length NS3 was diluted to 3.33 μM with assay buffer and transferred material to an eppendorf tube and place in water bath in 4° C. refrigerator. The appropriate amount of NS4A-2 to 8.3 mM in assay buffer was added to equal the volume of NS3 in step 2.1.1 (conversion factor −3.8 mg/272 μL assay buffer). The material was transferred to an eppendorf tube and place in water bath in 4° C. refrigerator.
After equilibration to 4° C., equal volumes of NS3 and NS4A-2 solutions were combined in an eppendorf tube, mix gently with a manual pipettor, and incubate mixture for 15 minutes in the 4° C. water bath. Final concentrations in the mixture are 1.67 μM NS3, 4.15 mM NS4A-2 (2485-fold molar excess NS4A-2).
After 15 minutes at 4° C., the NS3/NS4A-2 eppendorf tube was removed and placed in a room temperature water bath for 10 minutes. NS3/NS4A-2 was alliquoted at appropriate volumes and store at −80° C. (E. coli NS3 run at 2 nM in assay, aliquot at 25 μL. BV NS3 run at 3 nM in assay, aliquot at 30 μL).
Sample compounds were dissolved to 10 mM in DMSO then diluted to 2.5 mM (1:4) in DMSO.
The E. coli. NS3/NS4A-2 was diluted to 4 nM NS3 (1:417.5 of 1.67 μM stock−18 μL 1.67 μM stock+7497 μL assay buffer).
The BV NS3/NS4A-2 was diluted to 6 nM NS3 (1:278.3 of 1.67 μM stock−24 μL 1.67 μM stock+6655 μL assay buffer).
Using the manual multichannel pipettor, careful not to introduce bubbles into the plate, add 50 μL assay buffer to wells A01-H01 of a black Costar 96-well polypropylene storage plate.
Using the manual multichannel pipettor, careful not to introduce bubbles into the plate, add 50 μL of diluted NS3/NS4A-2 from step 2.2.6 to wells A02-H12 of plate in step 2.2.7.
Using the manual multichannel pipettor, careful not to introduce bubbles into the plate, transfer 25 μL of the wells in drug dilution plate in step 2.2.5 to corresponding wells in assay plate in step 2.2.8. Change tips on multichannel pipettor for each row of compounds transferred.
Using the manual multichannel pipettor, careful not to introduce bubbles into the plate, mix the wells from the assay plate in step 2.2.9 by aspirating and dispensing 35 μL of the 75 μL in each well five times. Change tips on multichannel pipettor for each row of wells mixed.
Cover plate with a polystyrene plate lid and pre-incubate the plate from step 2.2.10 containing NS3 protease and sample compounds 10 minutes at room temperature.
While plate from step 2.2.11 is pre-incubating, dilute RETS1 substrate in a 15 mL polypropylene centrifuge tube.
Dilute RETS1 substrate to 8 μM (1:80.75 of 646 μM stock−65 μL 646 μM stock+5184 μL assay buffer).
After the plate in step is done pre-incubating, and using the manual multichannel, add 25 μL of substrate to all wells on the plate. Quickly mix the plate as in step 2.2.10, mixing 65 μL of the 100 μL in the wells.
Read the plate in kinetic mode on the Molecular Devices SpectraMax Gemini XS plate reader. Reader settings: Read time: 30 minutes, Interval: 36 seconds, Reads: 51, Excitation k: 335 nm, Emission k: 495 nm, cutoff: 475 nm, Automix: off, Calibrate: once, PMT: high, Reads/well: 6, Vmax pts: 21 or 28/51 depending on length of linearity of reaction.
IC50s are determined using a four parameter curve fit equation, and converted to Ki's using the following Km's:
where Ki=IC50/(1+[S]/Km))

T1 sequence (P27958 1027-1657): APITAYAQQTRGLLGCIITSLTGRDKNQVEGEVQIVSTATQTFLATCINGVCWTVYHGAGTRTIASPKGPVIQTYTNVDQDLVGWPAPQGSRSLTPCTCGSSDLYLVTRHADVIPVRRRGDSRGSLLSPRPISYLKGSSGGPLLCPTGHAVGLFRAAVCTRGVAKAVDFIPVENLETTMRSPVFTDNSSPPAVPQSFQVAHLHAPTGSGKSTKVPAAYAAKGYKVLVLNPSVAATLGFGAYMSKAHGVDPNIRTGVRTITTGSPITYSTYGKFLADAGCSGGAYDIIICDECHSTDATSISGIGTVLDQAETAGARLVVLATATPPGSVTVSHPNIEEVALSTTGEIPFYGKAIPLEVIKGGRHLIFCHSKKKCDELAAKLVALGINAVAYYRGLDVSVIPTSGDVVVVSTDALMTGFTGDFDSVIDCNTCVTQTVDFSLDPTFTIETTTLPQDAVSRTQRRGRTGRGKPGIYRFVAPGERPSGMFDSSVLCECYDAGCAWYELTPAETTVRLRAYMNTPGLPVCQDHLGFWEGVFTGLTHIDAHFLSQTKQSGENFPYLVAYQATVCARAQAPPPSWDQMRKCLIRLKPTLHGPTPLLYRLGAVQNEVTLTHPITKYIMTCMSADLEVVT
T2 sequence (P27958 1027-1657): as above

In general, EC50 refers to the midpoint of the concentration-response curve. In general, IC50 refers to the midpoint of a concentration-inhibition curve. Turning to `CC(C)(C)OC(=O)N[C@H]1CCCCC/C=C\[C@@H]2C[C@@]2(C(=O)NS(=O)(=O)C2CC2)NC(=O)[C@@H]2C[C@@H](OC(=O)N3Cc4ccc(C(=O)O)cc4C3)CN2C1=O` [AR00365084, (1S,4R,6S,14S,18R)-1,3-Dihydro-isoindole-2,5-dicarboxylic acid 2-(14-tert-butoxycarbonylamino-4-cyclopropanesulfonylaminocarbonyl-2,15-dioxo-3,16-diaza-tricyclo[14.3.0.0^4,6]nonadec-7-en-18-yl) ester], the EC50 in assay [1] is under 10 µM. In addition, on NS3-NS4A protease, the IC50 was under 0.1 µM.

Consider `COCC1c2cccc(F)c2CCN1C(=O)O[C@@H]1CC2C(=O)N[C@]3(C(=O)NS(=O)(=O)C4CC4)C[C@H]3/C=C\CCCCC[C@H](NC(=O)OC(C)(C)C)C(=O)N2C1` (stereo partly drawn) [AR00365193, (1S,4R,6S,14S,18R)-5-Fluoro-1-methoxymethyl-3,4-dihydro-1H-isoquinoline-2-carboxylic acid 14-tert-butoxycarbonylamino-4-cyclopropanesulfonylaminocarbonyl-2,15-dioxo-3,16-diaza-tricyclo[14.3.0.0^4,6]nonadec-7-en-18-yl ester], for which the 50% effective concentration (EC50) in assay [1] is under 0.1 µM. Besides, the IC50 at NS3-NS4A protease is under 0.1 µM.

On to `CCNC(=O)c1ccc2c(c1)CN(C(=O)O[C@@H]1C[C@H]3C(=O)N[C@]4(C(=O)NS(=O)(=O)C5CC5)C[C@H]4/C=C\CCCCC[C@H](NC(=O)OC(C)(C)C)C(=O)N3C1)C2` [AR00365252, (1S,4R,6S,14S,18R)-5-Ethylcarbamoyl-1,3-dihydro-isoindole-2-carboxylic acid 14-tert-butoxycarbonylamino-4-cyclopropanesulfonylaminocarbonyl-2,15-dioxo-3,16-diaza-tricyclo[14.3.0.0^4,6]nonadec-7-en-18-yl ester], for which the EC50 in assay [1] was under 1 µM. For the same compound, the IC50 at NS3-NS4A protease is under 0.1 µM.

Regarding `COCC1c2cccc(F)c2CCN1C(=O)O[C@@H]1C[C@H]2C(=O)N[C@]3(C(=O)O)C[C@H]3/C=C\CCCCC[C@H](NC(=O)OC(C)(C)C)C(=O)N2C1` (stereo partly drawn) [AR00365349, (1S,4R,6S,14S,18R)-14-tert-Butoxycarbonylamino-18-(5-fluoro-1-methoxymethyl-3,4-dihydro-1H-isoquinoline-2-carbonyloxy)-2,15-dioxo-3,16-diaza-tricyclo[14.3.0.0^4,6]nonadec-7-ene-4-carboxylic acid], the EC50 in assay [1] is under 1 µM. The IC50 at NS3-NS4A protease was under 1 µM.

Consider `CC(C)(C)OC(=O)N[C@H]1CCCCC/C=C\[C@@H]2C[C@@]2(C(=O)O)NC(=O)[C@@H]2C[C@@H](OC(=O)N3Cc4cccc(F)c4C3)CN2C1=O` [AR00365369, (1S,4R,6S,14S,18R)-14-tert-Butoxycarbonylamino-18-(4-fluoro-1,3-dihydro-isoindole-2-carbonyloxy)-2,15-dioxo-3,16-diaza-tricyclo[14.3.0.0^4,6]nonadec-7-ene-4-carboxylic acid], for which the EC50 in assay [1] was under 1 µM. Besides, the concentration for half-maximal inhibition (IC50) at NS3-NS4A protease was under 0.1 µM.

For the compound `COCC1c2cccc(F)c2CCN1C(=O)O[C@@H]1CC2C(=O)N[C@]3(C(=O)O)C[C@H]3/C=C\CCCCC[C@H](NC(=O)OC3CCCC3)C(=O)N2C1` (stereo partly drawn) [AR00365381, (1S,4R,6S,14S,18R)-14-Cyclopentyloxycarbonylamino-18-(5-fluoro-1-methoxymethyl-3,4-dihydro-1H-isoquinoline-2-carbonyloxy)-2,15-dioxo-3,16-diaza-tricyclo[14.3.0.0^4,6]nonadec-7-ene-4-carboxylic acid], the EC50 in assay [1] was under 1 µM. Moreover, the 50% inhibitory concentration (IC50) at NS3-NS4A protease was under 1 µM.

For `CC(C)(C)OC(=O)N[C@H]1CCCCC/C=C\[C@@H]2C[C@@]2(C(=O)NS(=O)(=O)c2ccc(C(=O)O)cc2)NC(=O)[C@@H]2C[C@@H](OC(=O)N3Cc4ccccc4C3)CN2C1=O` [AR00365387, (1S,4R,6S,14S,18R)-1,3-Dihydro-isoindole-2-carboxylic acid 14-tert-butoxycarbonylamino-4-(4-carboxy-benzenesulfonylaminocarbonyl)-2,15-dioxo-3,16-diaza-tricyclo[14.3.0.0^4,6]nonadec-7-en-18-yl ester], in assay [1], the EC50 was under 0.1 µM. Also, at NS3-NS4A protease, the half-maximal inhibitory concentration (IC50) was under 0.1 µM.

For the compound `CC(C)(C)OC(=O)N[C@H]1CCCCC/C=C\[C@@H]2C[C@@]2(C(=O)NS(=O)(=O)c2cc(C(=O)O)c(Cl)cc2F)NC(=O)[C@@H]2C[C@@H](OC(=O)N3Cc4ccccc4C3)CN2C1=O` [AR00365426, (1S,4R,6S,14S,18R)-1,3-Dihydro-isoindole-2-carboxylic acid 14-tert-butoxycarbonylamino-4-(5-carboxy-4-chloro-2-fluoro-benzenesulfonylaminocarbonyl)-2,15-dioxo-3,16-diaza-tricyclo[14.3.0.0^4,6]nonadec-7-en-18-yl ester], in assay [1], the EC50 is under 10 µM. Besides, the IC50 on NS3-NS4A protease was under 0.1 µM.

For `CC(C)(C)OC(=O)N[C@H]1CCCCC/C=C\[C@@H]2C[C@@]2(C(=O)NS(=O)(=O)c2cccs2)NC(=O)[C@@H]2C[C@@H](OC(=O)N3Cc4ccccc4C3)CN2C1=O` [AR00365427, (1S,4R,6S,14S,18R)-1,3-Dihydro-isoindole-2-carboxylic acid 14-tert-butoxycarbonylamino-2,15-dioxo-4-(thiophene-2-sulfonylaminocarbonyl)-3,16-diaza-tricyclo[14.3.0.0^4,6]nonadec-7-en-18-yl ester], the EC50 in assay [1] was under 0.1 µM. Besides, on NS3-NS4A protease, the IC50 was under 0.1 µM.

In the case of `CC(C)(C)OC(=O)N[C@H]1CCCCC/C=C\[C@@H]2C[C@@]2(C(=O)NS(=O)(=O)c2ccc(C(=O)O)cc2)NC(=O)[C@@H]2C[C@@H](OC(=O)N3Cc4cccc(F)c4C3)CN2C1=O` [AR00365438, (1S,4R,6S,14S,18R)-4-Fluoro-1,3-dihydro-isoindole-2-carboxylic acid 14-tert-butoxycarbonylamino-4-(4-carboxy-benzenesulfonylaminocarbonyl)-2,15-dioxo-3,16-diaza-tricyclo[14.3.0.0^4,6]nonadec-7-en-18-yl ester], in assay [1], the EC50 was under 0.1 µM. Besides, at NS3-NS4A protease, the IC50 was under 0.1 µM.

In the case of `CN(C)c1ccc(S(=O)(=O)NC(=O)[C@@]23C[C@H]2/C=C\CCCCC[C@H](NC(=O)OC(C)(C)C)C(=O)N2C[C@H](OC(=O)N4Cc5ccccc5C4)C[C@H]2C(=O)N3)cc1` [AR00365572, (1S,4R,6S,14S,18R)-1,3-Dihydro-isoindole-2-carboxylic acid 14-tert-butoxycarbonylamino-4-(4-dimethylamino-benzenesulfonylaminocarbonyl)-2,15-dioxo-3,16-diaza-tricyclo[14.3.0.0^4,6]nonadec-7-en-18-yl ester], the EC50 in assay [1] is under 0.1 µM. In addition, the IC50 at NS3-NS4A protease was under 0.1 µM.

As for `CC(C)(C)OC(=O)N[C@H]1CCCCC/C=C\[C@@H]2C[C@@]2(C(=O)NS(=O)(=O)C2CC2)NC(=O)[C@@H]2C[C@@H](NC(=O)c3sc4ccccc4c3Cl)CN2C1=O` [Example 1], the IC50 against NS3-NS4 protease is under 0.1 µM.

`CC(C)(C)OC(=O)N[C@H]1CCCCC/C=C\[C@@H]2C[C@@]2(C(=O)NS(=O)(=O)C2CC2)NC(=O)[C@@H]2C[C@@H](NC(=O)c3ccccc3)CN2C1=O` [Example 2] showed a half-maximal inhibitory concentration (IC50) on NS3-NS4 protease of under 0.1 µM.
